In general, IC50 refers to the concentration that gives 50% inhibition.

The subject of series [1] is KCL-22 xenograft. The series can be described thus: In vivo efficacy in KCL-22 xenograft model, single agent treatment. Also on record: species or system mouse. The protocol: In Vivo Efficacy in KCL-22 Xenograft Model—Single Agent Treatment Compounds of the invention were dosed orally in a mouse KCL-22 xenograft model for 7 days. 6-8 week old female nude mice purchased from Harlan (Indianapolis Ind.) were implanted subcutaneously with 5×10^6 KCL-22 cells in 50% matrigel (BD Biosciences, #354234) in the right dorsal axillary region. […] Compounds of the invention in phosphate buffered saline were prepared weekly and dosed by oral gavage at 3-30 mg/kg twice daily (n=6 mice per dose level). Tumor volume was determined by twice weekly digital calipering and calculated as Length×Width^2/2.

The subject of series [2] is KCL-22 xenograft. The series can be described thus: In vivo efficacy in KCL-22 xenograft model, dual agent treatment. Also on record: species or system mouse. The protocol:
In Vivo Efficacy in KCL-22 Xenograft Model—Dual Agent Treatment 6-8 week old female nude mice purchased from Harlan (Indianapolis Ind.) were implanted subcutaneously with 2×10^6 KCL-22 cells in 50% matrigel (BD Biosciences, #354234) in the right dorsal axillary region. […] Compounds of the invention in a phosphate-buffered saline solution were prepared weekly and dosed by oral gavage at 30 mg/kg twice daily, and Nilotinib solution was dosed at 75 mg/kg twice daily. Animals received either single agent alone or combination of both simultaneously. Tumor volume was determined by twice weekly digital calipering and calculated as Length×Width^2/2.

The nature of series [3]: Estimation of human PK parameters and efficacious dose from in vivo PK. The conditions noted are these: estimated from in vivo PK. An excerpt:
In vivo PK parameters can be utilized for the estimation of human PK parameters. Applying various methods known in the art for prediction of human PK, the predicted human clearance can be estimated.

The target of series [4] is T1, ABL1 (64-515) (Homo sapiens, UniProt P00519).
T1 construct: 3.5 nM ABL (ABL(64-515), produced in-house from E. coli); His6 followed by a PreScission protease cleavage site (N, cleaved yes); made in house; host or cells: E. coli (BL21 (DE3) according to b733)
Description: Radio ABL1 (64-515) radiometric filter-binding assay. The format is biochemical.
Description: Expression and purification of protein kinase—Expression and purification of human ABL was performed using standard expression purification procedures. […] The His-ABL was expressed in E. coli BL21 (DE3) and the ABL proteins were isolated by Ni-affinity on a Ni-NTA column (Qiagen). The His-tag was removed by PreScission protease (GE Healthcare) and the non-phosphoprylated ABL further purified on a Mono Q HR 10/10 (GE Healthcare, mono-phosphorylated ABL is about 10-20% of total ABL protein) and HiLoad 16/60 Superdex 200 size exclusion column (GE Healthcare).
For determination of ABL kinase activity, the radiometric filter-binding assay was used. […] 10 μL of enzyme (ranging between 5 nM to 20 nM) was added to initiate the reaction. Pre-incubation of enzyme with compounds (when stated) was performed by exposing the enzyme to compounds prior to addition of the substrate mixture (ATP and/or peptide substrate). […] Filter-plates were washed 3× with 0.5% H3PO4, followed by addition of 30 μL scintillation cocktail (Microscint, Perkin Elmer) per well and then analysed in a TopCount NXT scintillation counter (Perkin Elmer). Results were expressed as IC50 values.

For series [5], the target named is T1, ABL1 (64-515). The series can be described thus: Caliper ABL1 (64-515) microfluidic mobility shift assay. The series is classed as biochemical. The conditions noted are these: Table of Biochemical Data.
Description: All assays were performed in 384-well microtiter plates. Each assay plate contained 8-point serial dilutions for 40 test compounds, as well as four 8-point serial dilutions of staurosporine as a reference compound, plus 16 high and 16 low controls. Liquid handling and incubation steps were done on a Thermo CatX workstation equipped with Innovadyne Nanodrop Express. Between pipetting steps, tips were cleaned in wash cycles using wash buffer.
The assay plates were prepared by addition of 50 mL per well of compound solution in 90% DMSO. […] Plates with terminated kinase reactions were transferred to the Caliper LC3000 workstations for reading. Phosphorylated and unphosphorylated peptides were separated using the Caliper microfluidic mobility shift technology. Briefly, samples from terminated kinase reactions were applied to the chip. Analytes are transported through the chip by constant buffer flow and the migration of the substrate peptide is monitored by the fluorescence signal of its label. Phosphorylated peptide (product) and unphosphorylated peptide (substrate) are separated in an electric field by their charge/mass ratio. Kinase activities were calculated from the amounts of formed phospho-peptide. IC50 values were determined from percent inhibition values at different compound concentrations by non-linear regression analysis.
Preparation of compound dilutions: Test compounds were dissolved in DMSO (10 mM) and transferred into 1.4 mL flat bottom or V-shaped Matrix tubes carrying a unique 2D matrix. The stock solutions were stored at +2° C. if not used immediately. For the test procedure the vials were defrosted and identified by a scanner whereby a working sheet was generated that guided the subsequent working steps.
Compound dilutions were made in 96-well plates. This format enabled the assay of maximally 40 individual test compounds at 8 concentrations (single points) including 4 reference compounds. The dilution protocol included the production of “pre-dilution plates”, “master plates” and “assay plates”.
Pre-dilution plates: Polypropylene 96-well plates were used as pre-dilution plates. […] All dilution steps were done on a HamiltonSTAR robot.
These plates were used directly for the assay which was performed in a total volume of 9.05 μL.
In the next series the target is T2, Ba/F3-BCR-ABL1-WT cells (Homo sapiens, UniProt P00519).
T2 construct: fused on or other part: P11274 (Breakpoint cluster region protein)
Description: Ba/F3-BCR-ABL1-WT cell proliferation assay. The format is cell-based, murine. The conditions noted are these: 48 hours; read-out: Ba/F3-BCR-ABL1-WT IC50.

Series [6] concerns the target T3, Ba/F3-BCR-ABL1-T315I cells (Homo sapiens, UniProt P00519, T315I, cells depend on it).
T3 construct: A similar approach was used to generate Ba/F3 cells that depend on a BCR-ABL1 variant in which threonine 315 is replaced with isoleucine; fused on or other part: P11274 (Breakpoint cluster region protein)
Description: Ba/F3-BCR-ABL1-T315I cell proliferation assay. The series is classed as cell-based, murine. The conditions noted are these: 48 hours; read-out: Ba/F3-BCR-ABL1-T315I IC50.

Description for Ba/F3-BCR-ABL1-WT cells: To generate Ba/F3 cells that depend on BCR-ABL1 expression for growth and survival, Ba/F3 cells were engineered to express BCR-ABL1 using retroviral transduction with a MSCV based retroviral vector containing a p210 BCR-ABLlexpression cassette. […] These cells are referred to as Ba/F3-BCR-ABL-WT.
Ba/F3-WT cells were maintained in RPMI1640 media with L-glutamine, HEPES (Lonza), 10% FBS (Gibco) and 5 ng/ml IL-3 (Calbiochem). Ba/F3-BCR-ABL1-WT cells and Ba/F3-BCR-ABL1-T315I cells were manitained in RPMI1640 media with L-glutamine, HEPES (Lonza) and 10% FBS (Gibco).
For each cell line, the cell density was adjusted to 50 000 cells/mL and 50 μL (2500 cells) added per well of a 384-well assay plate.
Test compounds were resuspended in DMSO at a concentration of 10 mM. A serial three-fold dilution of each compound with DMSO was performed in 384-well plates using the Janus Liquid Dispenser (PerkinElmer). Compound was delivered to the assay plates containing 2500 cells in a 50 μL volume via Acoustic delivery from an ATS-100 (EDC).
Cells were incubated at 37° C. in a humidified environment with 5% carbon dioxide for 48 hours. Britelite plus solution (Perkin Elmer) was prepared according to the manufacturer's instructions and 25 μL added to each well of the assay plate. […] The degree of luminescence correlates with the number of cells in each well. The effect of each inhibitor concentration can therefore be calculated and IC50 values generated.

Take `O=C(Nc1ccc(OC(F)(F)Cl)cc1)c1cnc(N2CC[C@@H](O)C2)c(-c2ccn[nH]2)c1` [Example 9, (R)—N-(4-(Chlorodifluoromethoxy)phenyl)-6-(3-hydroxypyrrolidin-1-yl)-5-(1H-pyrazol-5-yl)nicotinamide]: the “tumor growth inhibition compared to vehicle-treated mice” value in the series with KCL-22 xenograft [1] (3 mg/kg twice daily, oral, 7 days) turned out to be 45%. The tumor regression with KCL-22 xenograft [1] (7.5 mg/kg twice daily, oral, 7 days) came out at 56%; with KCL-22 xenograft [1] (15 mg/kg twice daily, oral, 7 days), 88%; in the series on KCL-22 xenograft [1] (30 mg/kg twice daily, oral, 7 days) it was 92%. Also, the “antitumor activity (FIG. 2)” value in the series on KCL-22 xenograft [1] (daily treatment, subcutaneous KCL-22 xenografts) was “Dose-dependent antitumor activity”. Also, the “response of nilotinib resistant tumors (FIG. 3)” value in the series on KCL-22 xenograft [2] (30 mg/kg BID after resistance to 75 mg/kg Nilotinib BID) is given as “regression of the tumors”. In addition, the predicted human clearance in series [3] was 3 mL/min/kg. Moreover, the Vd in series [3] (human, read-out: volume of distribution (human, estimated)) was 1 L/kg.
Regarding `O=C(Nc1ccc(C(F)(F)C(F)(F)F)cc1)c1cnc(N2CC[C@@H](O)C2)c(-c2ccn[nH]2)c1` [Example 16, (R)-6-(3-Hydroxypyrrolidin-1-yl)-N-(4-(perfluoroethyl)phenyl)-5-(1H-pyrazol-5-yl)nicotinamide], the IC50 on ABL1 (64-515) [4] was 12 nM; on ABL1 (64-515) [5] it was less than 0.13 nM. In addition, the figures for the GI50 (on Ba/F3-BCR-ABL1-WT cells; in series [6]) were 4.1 nM and 92 nM, respectively.
In the case of `Cn1ccc(-c2cc(C(=O)Nc3ccc(OC(F)(F)Cl)cc3)cnc2N2CC[C@@H](O)C2)n1` [Example 28, (R)—N-(4-(Chlorodifluoromethoxy)phenyl)-6-(3-hydroxypyrrolidin-1-yl)-5-(1-methyl-1H-pyrazol-3-yl)nicotinamide], the values for the IC50 at ABL1 (64-515) [4] and on ABL1 (64-515) [5] were 2.8 nM and 1.9 nM, respectively. The GI50 is 7.5 nM at Ba/F3-BCR-ABL1-WT cells and 150 nM in series [6].
For `O=C(Nc1ccc(OC(F)(F)C(F)(F)F)cc1)c1cnc(N2CC[C@@H](O)C2)c(-c2ccn[nH]2)c1` [Example 19, (R)-6-(3-Hydroxypyrrolidin-1-yl)-N-(4-(perfluoroethoxy)phenyl)-5-(1H-pyrazol-5-yl)nicotinamide] the same measures were 5 nM, 1.8 nM, 13.5 nM and 236 nM.
For the compound `O=C(Nc1ccc(OC(F)(F)F)cc1)c1cnc(N2CC[C@@H](O)C2)c(-c2[nH]ncc2F)c1` [Example 5, (R)-5-(4-Fluoro-1H-pyrazol-5-yl)-6-(3-hydroxypyrrolidin-1-yl)-N-(4-(trifluoromethoxy)phenyl)nicotinamide], the IC50 came out at 7 nM at ABL1 (64-515) [4] and 1.2 nM on ABL1 (64-515) [5]. Moreover, the GI50 was found to be 8.1 nM at Ba/F3-BCR-ABL1-WT cells and 134 nM in series [6].
`Cc1cn(-c2cc(NC(=O)c3ccc(C)c(Nc4nccc(-c5cccnc5)n4)c3)cc(C(F)(F)F)c2)cn1` [nilotinib]: the tumor regression is reported as 82% in the series on KCL-22 xenograft [1] (75 mg/kg twice daily, positive control) and greater than 84% with KCL-22 xenograft [2] (nilotinib alone 75 mg/kg twice daily, after 4 week daily treatment). In addition, the “tumor volume on relapse” value in the series with KCL-22 xenograft [2] (nilotinib alone, after the 4 week response, most tumors) is given as greater than 500 mm^3.
On to `O=C(Nc1ccc(OC(F)(F)F)cc1)c1cnc(N2CC[C@H](CO)C2)c(-c2ccn[nH]2)c1` [Example 7, (S)-6-(3-(Hydroxymethyl)pyrrolidin-1-yl)-5-(1H-pyrazol-5-yl)-N-(4-(trifluoromethoxy)phenyl)nicotinamide], for which the 50% inhibitory concentration (IC50) on ABL1 (64-515) [4] was less than 3 nM; at ABL1 (64-515) [5], 0.4 nM. Also, the results for the GI50 (at Ba/F3-BCR-ABL1-WT cells; in series [6]) were 6 nM and 132 nM, respectively.
For `Cc1cn[nH]c1-c1cc(C(=O)Nc2ccc(OC(F)(F)Cl)cc2)cnc1N1CC[C@@H](O)C1` [Example 33, (R)—N-(4-(Chlorodifluoromethoxy)phenyl)-6-(3-hydroxypyrrolidin-1-yl)-5-(4-methyl-1H-pyrazol-5-yl)nicotinamide] the same measures were 6 nM, 0.6 nM, 1.5 nM and 32 nM.
For `O=C(Nc1ccc(SC(F)(F)F)cc1)c1cnc(N2CC[C@H](CO)C2)c(-c2ccn[nH]2)c1` [Example 12, (S)-6-(3-(Hydroxymethyl)pyrrolidin-1-yl)-5-(1H-pyrazol-5-yl)-N-(4-((trifluoromethyl)thio)phenyl)nicotinamide] the same measures were 6 nM, 0.5 nM, 1.9 nM and 38 nM.
Regarding `O=C(Nc1ccc(C(F)(F)C(F)(F)Cl)cc1)c1cnc(N2CC[C@@H](O)C2)c(-c2ccn[nH]2)c1` [Example 31, (R)—N-(4-(2-Chloro-1,1,2,2-tetrafluoroethyl)phenyl)-6-(3-hydroxypyrrolidin-1-yl)-5-(1H-pyrazol-5-yl)nicotinamide], the figures for the half-maximal inhibitory concentration (IC50) at ABL1 (64-515) [4] and on ABL1 (64-515) [5] were 1 nM and 2.5 nM, respectively. Besides, the GI50 was determined as 4.1 nM at Ba/F3-BCR-ABL1-WT cells and 133 nM in series [6].
For `Cc1cc(-c2cc(C(=O)Nc3ccc(OC(F)(F)F)cc3)cnc2N2CC[C@@H](O)C2)[nH]n1` [Example 3, (R)-6-(3-Hydroxypyrrolidin-1-yl)-5-(3-methyl-1H-pyrazol-5-yl)-N-(4-(trifluoromethoxy)phenyl)nicotinamide], in that order: 4 nM, 0.7 nM, 7.5 nM and 133 nM.
As to `O=C(Nc1ccc(SC(F)(F)F)c(F)c1)c1cnc(N2CC[C@@H](O)C2)c(-c2ccn[nH]2)c1` [Example 15, (R)—N-(3-Fluoro-4-((trifluoromethyl)thio)phenyl)-6-(3-hydroxypyrrolidin-1-yl)-5-(1H-pyrazol-5-yl)nicotinamide], the IC50 at ABL1 (64-515) [4] was 11 nM; on ABL1 (64-515) [5] it was 0.3 nM. In addition, the GI50 at Ba/F3-BCR-ABL1-WT cells turned out to be 1.9 nM; in series [6], 31 nM.

These data come from patent publication US8829195B2, “Compounds and compositions for inhibiting the activity of ABL1, ABL2 and BCR-ABL1” (Novartis AG, priority 2012, dated 2014).
